According to ChEMBL document CHEMBL1201862, “PubChem BioAssay data set” (2004):
The source made the active and inactive calls.

How the values were obtained:
Paired box protein Pax-8 = Paired box protein Pax-8 (Homo sapiens, UniProt Q06710); assay: PAX8 transcriptional activity inhibition in RMG-I – RMG-I cells, luciferase, cherry-pick, dose response (AID 687027); format: functional, cell-based;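 also: luciferase reporter driven by Pax8 target thyroperoxidase promoter measured by SteadyGlo luminescence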
Paired box protein Pax-8, sequence (Q06710 whole entry): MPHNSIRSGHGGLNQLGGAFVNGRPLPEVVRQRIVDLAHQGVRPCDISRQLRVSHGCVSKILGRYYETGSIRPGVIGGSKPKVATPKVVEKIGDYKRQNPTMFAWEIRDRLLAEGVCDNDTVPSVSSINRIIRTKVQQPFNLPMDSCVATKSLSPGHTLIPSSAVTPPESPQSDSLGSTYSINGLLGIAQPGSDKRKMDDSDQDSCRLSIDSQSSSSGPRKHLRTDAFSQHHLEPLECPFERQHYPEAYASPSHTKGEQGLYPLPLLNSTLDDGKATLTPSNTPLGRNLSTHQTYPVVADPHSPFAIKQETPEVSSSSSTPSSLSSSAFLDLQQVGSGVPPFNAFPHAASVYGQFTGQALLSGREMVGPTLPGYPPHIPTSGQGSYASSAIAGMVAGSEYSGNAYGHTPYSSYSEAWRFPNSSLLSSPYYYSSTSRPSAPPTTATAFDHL

[1] = OVCAR-3 cell viability loss – plate reader, dry powder samples, PAX8 inhibitor project, dose response (AID 743044); format: functional, cell-based
[2] = Dd2 parasite growth inhibition in erythrocytes – SYBR Green, dry powder samples, set 9, dose response (AID 1159568); format: functional, cell-based
Vero = assay: mammalian cell viability reduction – secondary assay, cytotoxicity control for West Nile virus antiviral project, dose response (AID 1650); format: functional; settings: Chlorocebus sabaeus
[3] = target: T1, Heat shock factor protein 1 (Mus musculus, UniProt P38532); assay: decrease of HSF1-responsive luciferase luminescence – cell-based, NIH3T3, dose retest, confirmation (AID 2382); format: functional;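 also: NIH3T3 fibroblasts with HSF1-driven luciferase reporter stressed by proteasome inhibitor MG132; luminescence from HSF1-driven luciferase expression after 8 hours of MG132 stress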
T1 sequence (P38532 whole entry): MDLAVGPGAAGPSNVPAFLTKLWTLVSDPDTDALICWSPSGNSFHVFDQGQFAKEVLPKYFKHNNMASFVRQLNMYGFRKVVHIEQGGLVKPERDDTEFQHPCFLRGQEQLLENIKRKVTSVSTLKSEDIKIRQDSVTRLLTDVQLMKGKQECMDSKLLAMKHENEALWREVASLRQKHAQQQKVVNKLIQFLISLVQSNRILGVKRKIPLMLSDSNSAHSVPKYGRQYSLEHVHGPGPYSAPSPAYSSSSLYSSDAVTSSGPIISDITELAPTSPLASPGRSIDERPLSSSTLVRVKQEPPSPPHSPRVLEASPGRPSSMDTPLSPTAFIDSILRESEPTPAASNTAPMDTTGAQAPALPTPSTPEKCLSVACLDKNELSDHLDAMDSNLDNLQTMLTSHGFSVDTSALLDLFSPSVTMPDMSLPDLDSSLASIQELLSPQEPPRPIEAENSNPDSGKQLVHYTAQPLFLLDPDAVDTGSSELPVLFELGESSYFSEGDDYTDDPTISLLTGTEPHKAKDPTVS

Prothrombin = Prothrombin (Homo sapiens, UniProt P00734); assay: Thrombin 1536 HTS Dose Response Confirmation. [Related pubchem assays: 1046 (Thrombin 1536 HTS; hits were confirmed in this assay)]; format: functional
Kallikrein-7 = Kallikrein-7 (Homo sapiens, UniProt P49862); assay: Fluorescence Intensity-based biochemical primary high throughput dose response assay to identify activators of kallikrein-7 (K7) zymogen.
Kallikrein-7, sequence (P49862 whole entry): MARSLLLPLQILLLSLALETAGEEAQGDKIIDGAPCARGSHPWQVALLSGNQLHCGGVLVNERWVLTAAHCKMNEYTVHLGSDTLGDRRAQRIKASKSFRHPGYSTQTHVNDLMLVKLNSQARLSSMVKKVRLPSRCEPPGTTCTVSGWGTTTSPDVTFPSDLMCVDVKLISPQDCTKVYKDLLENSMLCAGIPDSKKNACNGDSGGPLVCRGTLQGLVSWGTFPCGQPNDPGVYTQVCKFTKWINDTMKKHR

Fatty acid synthase [4] = target: T2, Fatty acid synthase (Homo sapiens, UniProt P49327); assay: inhibition of human FAS-TE enzyme activity – biochemical, endpoint fluorescence intensity, uHTS hits, dose response (AID 624327); format: functional;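 also: fluorescence from hydrolysis of an O-methyl fluorescein acyl ester substrate by the enzyme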
T2 sequence (P49327 whole entry): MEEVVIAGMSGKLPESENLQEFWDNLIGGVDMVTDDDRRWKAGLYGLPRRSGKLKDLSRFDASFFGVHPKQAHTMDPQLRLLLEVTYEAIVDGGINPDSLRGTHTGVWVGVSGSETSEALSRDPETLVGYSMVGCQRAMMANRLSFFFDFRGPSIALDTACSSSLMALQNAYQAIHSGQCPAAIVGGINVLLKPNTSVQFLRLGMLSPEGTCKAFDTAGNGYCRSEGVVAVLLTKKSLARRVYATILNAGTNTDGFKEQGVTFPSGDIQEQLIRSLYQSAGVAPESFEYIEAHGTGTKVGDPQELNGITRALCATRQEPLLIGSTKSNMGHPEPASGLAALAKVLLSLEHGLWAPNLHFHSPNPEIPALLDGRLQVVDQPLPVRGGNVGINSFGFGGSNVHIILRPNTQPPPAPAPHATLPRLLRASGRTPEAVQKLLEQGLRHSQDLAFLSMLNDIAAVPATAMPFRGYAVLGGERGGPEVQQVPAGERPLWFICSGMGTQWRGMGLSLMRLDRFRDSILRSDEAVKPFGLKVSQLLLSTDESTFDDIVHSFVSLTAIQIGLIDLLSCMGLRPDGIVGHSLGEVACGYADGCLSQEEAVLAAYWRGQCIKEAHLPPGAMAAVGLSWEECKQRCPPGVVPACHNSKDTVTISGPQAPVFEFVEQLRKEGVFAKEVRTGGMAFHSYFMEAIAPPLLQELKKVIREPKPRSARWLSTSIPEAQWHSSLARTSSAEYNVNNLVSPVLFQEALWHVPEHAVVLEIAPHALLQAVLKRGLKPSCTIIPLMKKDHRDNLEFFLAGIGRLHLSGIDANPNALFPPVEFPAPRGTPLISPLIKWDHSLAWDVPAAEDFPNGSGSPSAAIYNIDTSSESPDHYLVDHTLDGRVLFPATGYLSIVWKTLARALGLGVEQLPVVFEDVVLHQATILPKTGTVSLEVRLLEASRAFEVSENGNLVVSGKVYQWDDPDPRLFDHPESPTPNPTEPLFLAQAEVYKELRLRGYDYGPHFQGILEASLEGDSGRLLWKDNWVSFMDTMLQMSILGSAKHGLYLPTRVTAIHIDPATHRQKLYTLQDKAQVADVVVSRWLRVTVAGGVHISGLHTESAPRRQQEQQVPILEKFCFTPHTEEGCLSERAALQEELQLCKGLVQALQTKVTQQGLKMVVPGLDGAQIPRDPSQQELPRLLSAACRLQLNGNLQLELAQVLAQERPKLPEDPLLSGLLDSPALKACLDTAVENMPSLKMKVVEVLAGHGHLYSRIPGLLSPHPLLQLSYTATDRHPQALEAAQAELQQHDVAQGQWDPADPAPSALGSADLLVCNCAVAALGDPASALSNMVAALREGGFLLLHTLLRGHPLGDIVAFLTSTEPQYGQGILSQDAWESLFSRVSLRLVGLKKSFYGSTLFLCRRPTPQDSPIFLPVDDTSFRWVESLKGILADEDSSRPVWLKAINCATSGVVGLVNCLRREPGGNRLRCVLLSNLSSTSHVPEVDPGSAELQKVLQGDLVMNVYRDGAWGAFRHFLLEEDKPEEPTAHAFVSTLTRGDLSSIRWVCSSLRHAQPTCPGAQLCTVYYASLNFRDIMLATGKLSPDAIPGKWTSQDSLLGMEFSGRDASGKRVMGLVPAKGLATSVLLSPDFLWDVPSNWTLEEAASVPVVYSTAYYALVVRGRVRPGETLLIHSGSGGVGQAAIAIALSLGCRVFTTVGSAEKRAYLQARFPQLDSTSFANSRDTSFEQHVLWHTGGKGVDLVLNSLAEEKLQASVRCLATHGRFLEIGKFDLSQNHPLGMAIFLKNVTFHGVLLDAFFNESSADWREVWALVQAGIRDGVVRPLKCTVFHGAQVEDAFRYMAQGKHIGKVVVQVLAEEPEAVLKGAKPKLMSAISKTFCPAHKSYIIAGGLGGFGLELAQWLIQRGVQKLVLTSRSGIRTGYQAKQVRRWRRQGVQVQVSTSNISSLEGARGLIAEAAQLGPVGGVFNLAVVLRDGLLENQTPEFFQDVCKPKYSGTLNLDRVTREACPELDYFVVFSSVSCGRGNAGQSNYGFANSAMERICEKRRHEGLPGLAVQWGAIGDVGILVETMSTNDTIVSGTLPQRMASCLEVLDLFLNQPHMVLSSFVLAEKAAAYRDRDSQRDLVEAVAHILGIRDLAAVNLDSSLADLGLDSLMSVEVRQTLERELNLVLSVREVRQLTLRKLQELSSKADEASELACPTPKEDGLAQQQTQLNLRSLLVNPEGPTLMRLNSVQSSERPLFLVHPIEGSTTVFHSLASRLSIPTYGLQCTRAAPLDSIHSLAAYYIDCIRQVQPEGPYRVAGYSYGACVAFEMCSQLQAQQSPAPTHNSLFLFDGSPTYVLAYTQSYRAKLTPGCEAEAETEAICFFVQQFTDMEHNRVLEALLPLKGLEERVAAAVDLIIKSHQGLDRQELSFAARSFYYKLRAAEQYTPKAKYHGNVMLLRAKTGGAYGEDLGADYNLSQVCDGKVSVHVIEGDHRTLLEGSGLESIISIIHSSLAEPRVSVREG

Genome polyprotein = Genome polyprotein (dengue virus type 2, UniProt P29990); assay: flavivirus cap methylation enzyme inhibition – biochemical, confirmation dose response, primary screen (AID 588689); format: functional
Genome polyprotein, sequence (P29990 2492-3391 limits assumed): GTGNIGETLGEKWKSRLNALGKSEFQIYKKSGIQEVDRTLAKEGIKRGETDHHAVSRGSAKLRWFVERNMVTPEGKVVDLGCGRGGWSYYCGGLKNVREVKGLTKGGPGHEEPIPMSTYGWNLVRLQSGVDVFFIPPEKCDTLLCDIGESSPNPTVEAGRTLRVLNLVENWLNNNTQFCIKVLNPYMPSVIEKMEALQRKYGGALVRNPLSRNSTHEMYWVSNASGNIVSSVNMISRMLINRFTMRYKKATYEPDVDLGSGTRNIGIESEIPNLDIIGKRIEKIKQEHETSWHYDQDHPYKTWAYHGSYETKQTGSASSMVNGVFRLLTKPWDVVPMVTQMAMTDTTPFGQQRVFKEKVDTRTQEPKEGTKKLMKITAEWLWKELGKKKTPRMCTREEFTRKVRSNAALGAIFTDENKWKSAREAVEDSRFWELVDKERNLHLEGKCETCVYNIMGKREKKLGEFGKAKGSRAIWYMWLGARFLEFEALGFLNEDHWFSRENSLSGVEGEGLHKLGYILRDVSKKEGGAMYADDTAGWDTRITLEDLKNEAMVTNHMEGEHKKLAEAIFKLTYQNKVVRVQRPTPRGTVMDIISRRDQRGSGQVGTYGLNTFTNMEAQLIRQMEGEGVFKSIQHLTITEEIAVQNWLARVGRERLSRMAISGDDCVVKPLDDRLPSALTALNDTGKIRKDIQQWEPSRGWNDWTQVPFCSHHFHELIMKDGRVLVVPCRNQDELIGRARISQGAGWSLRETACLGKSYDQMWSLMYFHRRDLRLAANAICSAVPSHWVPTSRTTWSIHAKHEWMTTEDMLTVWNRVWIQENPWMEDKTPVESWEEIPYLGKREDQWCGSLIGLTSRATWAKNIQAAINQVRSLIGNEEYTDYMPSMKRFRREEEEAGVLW

Fatty acid synthase [5] = target: T2, Fatty acid synthase; assay: inhibition of human FAS-TE enzyme activity – biochemical, kinetic fluorescence intensity, dose response (AID 624326); format: functional;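 also: rate of fluorescence rise from hydrolysis of a fluorogenic O-methyl fluorescein ester substrate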
[6] = growth inhibition of PfATP4-mutant resistant parasites – NITD609-resistant line, SYBR Green, dry powder, dose response (AID 1159571); format: functional, cell-based;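 also: parasites synchronized at ring stage by sorbitol before testing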
[7] = growth inhibition of yeast DHODH-expressing 3D7 parasites – SYBR Green, dry powder samples, dose response (AID 1159570); format: functional, cell-based;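 also: parasite growth measured after 72 hours of compound exposure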
[8] = P. falciparum Dd2 growth inhibitors, dose response, SYBR Green, cherry-picked samples (AID 1159567); format: functional, cell-based
[9] = Dd2 malaria parasite growth inhibition potency – SYBR Green, dry powder samples, dose response (AID 1159566); format: functional, cell-based;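 also: potency for growth inhibition with lower SYBR green DNA signal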

For `O=C(Nc1ccc(F)cc1)N[C@H]1CC[C@H](CCNC(=O)c2cc(Cl)cc(Cl)c2)O[C@H]1CO`, the AC50 (Paired box protein Pax-8) was 8.97 µM (active) and the AC50 [1] was 33 µM (active).
For `O=C(C[C@@H]1CC[C@@H]2[C@H](COC[C@@H](O)CN2C(=O)c2ccncc2)O1)Nc1ccc(-c2ccccc2)cc1`, the AC50 [2] was 15.3 µM (active).
For `O=C1NC(Nc2nc3ccccc3s2)(C(F)(F)F)C(=O)N1C1CCCCC1` (stereo not given), the CC50 (Vero) was 3.44 µM (active).
In the case of `CCCCCCc1cc2cc(S(=O)(=O)c3ccc(F)c(Cl)c3)c(=O)oc2cc1O`, the EC50 [3] is reported as 17.5 µM (active) and the CC50 (Vero) is reported as 10.9 µM (active).
For `CCCNC(=O)N1[C@H](C#N)[C@@H](c2ccccc2C2=CCCCC2)[C@@H]1CO`, the AC50 [2] was 4.33 µM (active).
For `CCn1ncc(Br)c1C(=O)Nc1cc([N+](=O)[O-])ccc1C`, the IC50 (Prothrombin) was > 50 µM (not active).
For `C/C=C/c1ccc([C@H]2[C@@H](CO)N(C(=O)Nc3ccccc3F)[C@H]2C#N)cc1`, the AC50 [2] was 13.7 µM (active).
With `O=C(O)CCC(=O)NN1C(=O)c2ccccc2NC1c1ccc(F)cc1` (stereo not given) the EC50 (Kallikrein-7) was > 286 nM (active).
With `O=C(O)c1ccccc1SCC(=O)N1CCOCC1` the IC50 (Prothrombin) was > 50 µM (not active).
With `C=CCOc1ccc(C(=O)C2=C(O)C(=O)N(CCCOC)C2c2ccncc2)cc1` (stereo not given) the IC50 (Prothrombin) was > 50 µM (inconclusive).
For `CCc1ccc(S(=O)(=O)ON2C(=O)c3ccccc3C2=O)cc1`, the IC50 (Fatty acid synthase [4]) was 2.41 µM (active), the IC50 (Prothrombin) was 1.55 µM (active) and the IC50 (Genome polyprotein) was > 100 µM (active). The IC50 (Fatty acid synthase [5]) was 1.28 µM (active).
In the case of `COc1cccc(S(=O)(=O)N(C)C[C@@H]2Oc3ncc(C#Cc4ccc(OC)c(OC)c4)cc3C(=O)N([C@H](C)CO)C[C@@H]2C)c1`, the AC50 [6] is reported as 428 nM (active), the AC50 [7] is reported as 724 nM (active) and the AC50 [8] is reported as 1.23 µM (active). The AC50 [9] was 276 nM (active).
